Legend:
[1] = target: T1, GPR6 (Homo sapiens, UniProt P46095); assay: GPR6 antagonist functional cAMP assay (LANCE Ultra cAMP TR-FRET, CHO cells stably expressing GPR6); type: cell-based
T1 construct: expressed in transfected cells; host or cells: CHO cells
In short: (§1)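 Stable CHO-GPR6 or CHO-GPR3 cells (10,000/well) in Krebs-Ringer buffer with 0.1% BSA and 150 μM Ro 20-1724 were exposed to compounds for 45 min at 37° C (0.1% DMSO). cAMP read by LANCE Ultra TR-FRET; IC50 from 4-parameter fit normalized to DMSO and reference compounds.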

[2] = target: T2, GPR3 (Homo sapiens, UniProt P46089); assay: GPR3 antagonist functional cAMP assay (LANCE Ultra cAMP TR-FRET, CHO cells stably expressing GPR3); type: cell-based
T2 construct: expressed in transfected cells; host or cells: CHO cells
T2 sequence (P46089 whole entry, species assumed): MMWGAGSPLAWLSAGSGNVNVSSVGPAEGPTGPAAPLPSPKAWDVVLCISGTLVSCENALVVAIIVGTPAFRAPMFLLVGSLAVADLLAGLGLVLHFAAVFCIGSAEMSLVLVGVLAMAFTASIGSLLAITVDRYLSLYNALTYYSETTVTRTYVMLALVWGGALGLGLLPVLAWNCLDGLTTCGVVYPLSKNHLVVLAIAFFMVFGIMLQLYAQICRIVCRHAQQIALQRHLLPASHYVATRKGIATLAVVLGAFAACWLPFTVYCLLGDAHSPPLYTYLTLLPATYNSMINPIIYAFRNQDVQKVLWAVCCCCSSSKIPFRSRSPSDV
In short: as §1

[3] = CHO cells stably expressing GPR6, cAMP assay
[4] = CHO cells stably expressing GPR3, cAMP assay
[5] = CHO cells stably expressing GPR6, cAMP assay (Example 24)
[6] = CHO cells stably expressing GPR3, cAMP assay (Example 24)
[7] = procedure as described in Example 24

T1 sequence (P46095 whole entry): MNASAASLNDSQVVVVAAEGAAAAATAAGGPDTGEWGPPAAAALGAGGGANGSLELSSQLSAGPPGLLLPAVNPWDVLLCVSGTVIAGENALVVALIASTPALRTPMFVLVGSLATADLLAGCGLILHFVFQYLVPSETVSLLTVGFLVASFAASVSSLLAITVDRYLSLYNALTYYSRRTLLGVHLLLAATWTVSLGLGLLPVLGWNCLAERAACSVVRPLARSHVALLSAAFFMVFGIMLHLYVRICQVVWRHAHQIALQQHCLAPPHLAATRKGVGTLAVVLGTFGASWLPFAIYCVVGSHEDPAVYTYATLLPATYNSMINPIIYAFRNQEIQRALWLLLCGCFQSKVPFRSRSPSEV

| IC50 [1, 5] [nM] | IC50 [2, 6] [nM] | IC50 ([1]; procedure of Example 24) [nM] | IC50 ([2]; procedure of Example 24) [nM] | also measured | Structure (SMILES) |
| --- | --- | --- | --- | --- | --- |
|  |  |  |  | IC50 [1, 3]: 100 to 1000 nM; IC50 [2, 4]: 1000 to 30000 nM | CC(=O)N1CCc2nc(N3CCC(Oc4ccc(F)cc4F)CC3)c(C3CC3CO)nc2C1 (stereo not drawn) [Compound 489, 1-(2-(4-(2,4-difluorophenoxy)piperidin-1-yl)-3-(2-(hydroxymethyl)cyclopropyl)-7,8-dihydropyrido[3,4-b]pyrazin-6(5H)-yl)ethan-1-one] |
| 100 to 1000 | 1000 to 30000 |  |  |  | COC(C)(C)C(=O)N1CCc2nc(N3CCC(Oc4ccc(F)cc4F)CC3)c(-c3cn[nH]c3)nc2C1 [Compound 174, 1-{2-[4-(2,4-difluorophenoxy)piperidin-1-yl]-3-(1H-pyrazol-4-yl)-5H,6H,7H,8H-pyrido[3,4-b]pyrazin-6-yl}-2-methoxy-2-methylpropan-1-one] |
|  |  | 1000 to 30000 | 1000 to 30000 |  | CC(C)(O)[C@H](O)c1cc2nc(-c3cn[nH]c3)c(N3CCN(Cc4ccc(F)cc4F)CC3)nc2cn1 (single isomer, unassigned) [Compound 799] |
|  |  |  |  | IC50 [1, 3]: ≥ 30000 nM; IC50 [2, 4]: ≥ 30000 nM | CC(=O)N1CCc2nc(N3CCN(Cc4cn[nH]c4)CC3)c(-c3cnn(C)c3)nc2C1 [Compound 536, 1-[3-(1-methyl-4-pyrazolyl)-2-{4-[(4-pyrazolyl)methyl]-1-piperazinyl}-5,6,7,8-tetrahydro-1,4,6-triaza-6-naphthyl]-1-ethanone] |
| 1000 to 30000 | 1000 to 30000 |  |  |  | CNC(=O)C(C)N1CCc2nc(N3CCC(Oc4ccc(F)cc4F)CC3)c(-c3cn[nH]c3)nc2C1 (stereo not drawn) [Compound 147, 2-{2-[4-(2,4-difluorophenoxy)piperidin-1-yl]-3-(1H-pyrazol-4-yl)-5H,6H,7H,8H-pyrido[3,4-b]pyrazin-6-yl}-N-methylpropanamide] |
|  |  |  |  | IC50 [1, 7]: 1000 to 30000 nM; IC50 [2, 7]: 1000 to 30000 nM | CC(=O)N1CCc2nc(N3CCC(Oc4ccc(F)cc4F)CC3)c(-c3cncnc3)nc2C1 [Compound 34, 1-{2-[4-(2,4-difluorophenoxy)piperidin-1-yl]-3-(pyrimidin-5-yl)-5H,6H,7H,8H-pyrido [3,4-b]pyrazin-6-yl}ethan-1-one] |
|  |  | 100 to 1000 | 1000 to 30000 |  | CC(C)(O)[C@](C)(O)c1cc2nc(N3CCC(Oc4ccc(F)cc4F)CC3)c(-c3cnn(CF)c3)nc2cn1 (single isomer, unassigned) [Compound 677] |
|  |  |  |  | IC50 [1, 3]: 100 to 1000 nM; IC50 [2, 4]: 1000 to 30000 nM | CC(C)(O)[C@@H](O)c1cc2nc(N3CCC(Oc4ccc(F)cc4F)CC3)c(-c3cnn(C(F)F)c3)nc2cn1 (single isomer, unassigned) [Compound 555] |
|  |  |  |  | IC50 [1, 3]: ≥ 30000 nM; IC50 [2, 4]: ≥ 30000 nM | CC(=O)N1CCc2nc(N3CCN(Cc4cn(C)cn4)CC3)c(-c3cnn(C)c3)nc2C1 [Compound 528, 1-(2-{4-[(1-methyl-4-imidazolyl)methyl]-1-piperazinyl}-3-(1-methyl-4-pyrazolyl)-5,6,7,8-tetrahydro-1,4,6-triaza-6-naphthyl)-1-ethanone] |
| 1000 to 30000 | 1000 to 30000 |  |  |  | COCc1cccc(-c2nc3c(nc2N2CCC(Oc4ccc(F)cc4F)CC2)CCN(C(C)=O)C3)n1 [Compound 161, 1-{2-[4-(2,4-difluorophenoxy)piperidin-1-yl]-3-[6-(methoxymethyl)pyridin-2-yl]-5H,6H,7H,8H-pyrido[3,4-b]pyrazin-6-yl}ethan-1-one] |
| 1000 to 30000 | 1000 to 30000 |  |  |  | CC(=O)N1CCc2nc(N3CCC(Oc4ccc(F)cc4F)CC3)c(-c3cnc4n3CCN(C)C4)nc2C1 [Compound 90, 1-(2-(4-(2,4-difluorophenoxy)piperidin-1-yl)-3-(7-methyl-5,6,7,8-tetrahydroimidazo[1,2-a]pyrazin-3-yl)-7,8-dihydropyrido[3,4-b]pyrazin-6(5H)-yl)ethan-1-one] |
| 100 to 1000 | 1000 to 30000 |  |  |  | Cn1cc(-c2nc3cnc([C@@H](O)C(C)(C)O)cc3nc2N2CCN(Cc3ccc(F)cc3F)CC2)cn1 (single isomer, unassigned) [Compound 261] |
| 100 to 1000 | 1000 to 30000 |  |  |  | CC(=O)N1CCc2nc(N3CCC(Oc4ccc(F)cc4F)CC3)c(-c3cncc(N)n3)nc2C1 [Compound 465, 1-[3-(6-aminopyrazin-2-yl)-2-[4-(2,4-difluorophenoxy)piperidin-1-yl]-5H,6H,7H,8H-pyrido[3,4-b]pyrazin-6-yl]ethan-1-one] |
|  |  |  |  | IC50 [1, 3]: < 100 nM; IC50 [2, 4]: 100 to 1000 nM | Cn1cc(-c2nc3cnc([C@H](O)C(C)(C)O)cc3nc2N2CCN(Cc3ccc(F)cc3F)CC2)cn1 (single isomer, unassigned) [Compound 579] |
| 1000 to 30000 | 1000 to 30000 |  |  |  | CNc1cc2nc(N3CCC(Oc4ccc(F)cc4F)CC3)c(-c3cnn(C)c3)nc2cn1 [Compound 433, 2-(4-(2,4-difluorophenoxy)piperidin-1-yl)-N-methyl-3-(1-methyl-1H-pyrazol-4-yl)pyrido[3,4-b]pyrazin-7-amine] |
|  |  | 100 to 1000 | 1000 to 30000 |  | Cn1cc(-c2nc3cnc([C@H](O)C(C)(C)F)cc3nc2N2CCC(Oc3ccc(F)cc3F)CC2)cn1 (single isomer, unassigned) [Compound 743] |
|  |  | 100 to 1000 | 1000 to 30000 |  | CC(C)(O)CNc1cc2nc(-c3cnn(CF)c3)c(N3CCN(Cc4ccc(F)cc4F)CC3)nc2cn1 [Compound 757, 1-(3-{4-[(2,4-difluorophenyl)methyl]-1-piperazinyl}-2-[1-(fluoromethyl)-4-pyrazolyl]-1,4,6-triaza-7-naphthylamino)-2-methyl-2-propanol] |
|  |  | 100 to 1000 | 1000 to 30000 |  | CCn1cc(-c2nc3cnc([C@](C)(O)C(C)(C)O)cc3nc2N2CCC(Oc3ccc(F)cc3F)CC2)cn1 (single isomer, unassigned) [Compound 735] |
|  |  | 100 to 1000 | 1000 to 30000 |  | CC(C)(O)[C@@](C)(O)c1cc2nc(-c3cnn(CF)c3)c(N3CCN(Cc4ccccc4F)CC3)nc2cn1 (single isomer, unassigned) [Compound 715] |
|  |  | 100 to 1000 | 1000 to 30000 |  | Cn1cc(-c2nc3cnc([C@@](C)(O)C(C)(C)O)cc3nc2N2CCC(Oc3ccc(F)cc3F)CC2)cn1 (single isomer, unassigned) [Compound 672] |
|  |  | 100 to 1000 | 1000 to 30000 |  | COC1CCC(c2nc3c(nc2N2CCC(Oc4ccc(F)cc4F)CC2)CCN(C(C)=O)C3)CC1 (stereo not drawn) [Compound 373, 1-(2-(4-(2,4-difluorophenoxy)piperidin-1-yl)-3-(4-methoxycyclohexyl)-7,8-dihydropyrido[3,4-b]pyrazin-6(5H)-yl)ethan-1-one] |
|  |  |  |  | IC50 [1, 7]: 1000 to 30000 nM; IC50 [2, 7]: 1000 to 30000 nM | Fc1ccc(NC2CCN(c3nc4ccncc4nc3-c3cn[nH]c3)CC2)c(F)c1 [Compound 35, 1-(3-(1H-pyrazol-4-yl)pyrido[3,4-b]pyrazin-2-yl)-N-(2,4-difluorophenyl)piperidin-4-amine] |
|  |  | 1000 to 30000 | ≥ 30000 |  | CC(C)(O)C(=O)c1cncc2nc(-c3cnn(C(F)F)c3)c(N3CCN(Cc4ccc(F)cc4F)CC3)nc12 [Compound 693, 1-{3-[1-(difluoromethyl)-4-pyrazolyl]-2-{4-[(2,4-difluorophenyl)methyl]-1-piperazinyl}-1,4,6-triaza-8-naphthyl}-2-hydroxy-2-methyl-1-propanone] |
| 1000 to 30000 | 1000 to 30000 |  |  |  | CC(=O)N1CCc2nc(N3CCC(Oc4ccc(F)cc4F)CC3)c(-c3cccc(F)n3)nc2C1 [Compound 57, 1-{2-[4-(2,4-difluorophenoxy)piperidin-1-yl]-3-(6-fluoropyridin-2-yl)-5H,6H,7H,8H-pyrido[3,4-b]pyrazin-6-yl}ethan-1-one] |
